Literature values as cited in PMC8952239, “Injectable Biodegradable Silica Depot: Two Months of Sustained Release of the Blood Glucose Lowering Peptide, Pramlintide” (Pharmaceutics, 2022).
Values belong to the molecule of their own block, whether it stands above or below them. Bridge positions count the residues as written; N and C are the ends. Ends that are not written are not given here.

How the values were obtained:
rats = tested on: rats
Procedure: In an earlier preclinical study of pramlintide in rats, the peak plasma concentration of pramlintide at 50% maximally effective gastric inhibitory dose was reported to be 15 pM. The lower dose (5 mg/kg) formulation in the present study seems to achieve this concentration level by the end of the study.

lean rats = tested on: lean rats
Description: (Figure 6). […] The findings for bodyweight loss mirror very well previously published data in lean rats. Roth et al. show body weight returning to baseline levels 8 days after the start of amylin treatment in an experiment assessing the effect ...

[1] = weak acid; no reference given
Description: In this communication, we highlight a sustained delivery strategy for in vivo delivery of the synthetic peptide analogue of amylin, pramlintide acetate. As mentioned earlier, amylin is the endogenous hormone co-secreted with insulin by the pancreas for glucose metabolism in vivo. […] Such effects can be moderated either by decreasing the single dosing of preprandial ins ...

Molecule: pramlintide acetate (KCNTATCATQRLANFLVHSSNNFGPILPPTNVGSNTY-NH2; disulfide 2-7 (inferred); also: acetate salt; UniProt P10997 34-70, looked up, variant A25P S28P S29P) [synthetic analogue of amylin, adjunct to preprandial insulin therapy]
peak plasma concentration at 50% maximally effective gastric inhibitory dose (rats): 15 pM

Molecule: amylin: endogenous hormone co-secreted with insulin by the pancreas (KCNTATCATQRLANFLVHSSNNFGAILSSTNVGSNTY; Islet amyloid polypeptide; UniProt P10997 34-70, looked up)
time after start of treatment at which body weight returned to baseline levels (lean rats; continuous subcutaneous amylin infusion over 24 days): 8 days
period with significant effects on food intake (lean rats; lean animals, minipump over 14 days): 6 days

pKa [1]: 9.84
Molecule: O[Si](O)(O)O [silicic acid]
